Results from PubChem BioAssay AID1918949 (Molecular Pharmacology Branch, DTP, NCI, 2023).

Tested on: K24384-001-R-PDC complex spheroid viability
Assay: Anticancer human tumor K24384-001-R-PDC patient-derived pancreatic adenocarcinoma cell line growth inhibition
Details: for IC50: curve of first compound; for viability, T/C: stronger effect = lower value
Summary of the method: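 Drug combinations with the LSD1 inhibitor iadademstat tested on tumor cells co-cultured as spheroids with endothelial cells and mesenchymal stem cells. Concentrations descended in half-log increments from clinical Cmax or 10 microM.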
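Also: spheroids exposed to agents for seven days before luminescence viability reading.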
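For viability, T/C in this document: 100% = DMSO vehicle control viability.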

Q: How did the IC50 (second compound 0.1 µM) turn out when `CC1(C)CCC(CN2CCN(c3ccc(C(=O)NS(=O)(=O)c4ccc(NCC5CCOCC5)c([N+](=O)[O-])c4)c(Oc4cnc5[nH]ccc5c4)c3)CC2)=C(c2ccc(Cl)cc2)C1` + NC1CC1c1ccc(-c2cccc(O)c2)cc1 was run?
A: Its IC50 is 3.35 µM.

Q: What about the IC50 (second compound 0.316 µM) of the same compound?
A: Its IC50 is 2.6 µM.

Q: What about the IC50 (second compound 1 µM) of the same compound?
A: The IC50 was 2.68 µM.

Q: And the IC50 (second compound 3.16 µM)?
A: Its IC50 is 2.69 µM.

Q: And the IC50 (second compound 10 µM)?
A: Its IC50 is 1.95 µM.

Q: And the viability, T/C (second compound 0.1 µM, first compound 0.0316 µM)?
A: The viability, T/C was 90.7%.

Q: And the viability, T/C (second compound 0.1 µM, first compound 0.1 µM)?
A: Its viability, T/C is 83.9%.

Q: And the viability, T/C (second compound 0.1 µM, first compound 0.316 µM)?
A: The viability, T/C was 88.3%.

Q: And the viability, T/C (second compound 0.1 µM, first compound 1 µM)?
A: Its viability, T/C is 87.6%.

Q: And the viability, T/C (second compound 0.1 µM, first compound 3.16 µM)?
A: Its viability, T/C is 52.6%.

Q: And the viability, T/C (second compound 0.1 µM, first compound 10 µM)?
A: The viability, T/C was 0.98%.

Q: And the viability, T/C (second compound 0.316 µM, first compound 0.0316 µM)?
A: The viability, T/C was 82.7%.

Q: What about the viability, T/C (second compound 0.316 µM, first compound 0.1 µM) of the same compound?
A: The viability, T/C was 76.7%.

Q: And the viability, T/C (second compound 0.316 µM, first compound 0.316 µM)?
A: Its viability, T/C is 90%.

Q: What about the viability, T/C (second compound 0.316 µM, first compound 1 µM) of the same compound?
A: The viability, T/C was 80.4%.

Q: What about the viability, T/C (second compound 0.316 µM, first compound 3.16 µM) of the same compound?
A: Its viability, T/C is 43.7%.

Q: And the viability, T/C (second compound 0.316 µM, first compound 10 µM)?
A: Its viability, T/C is 1.07%.

Q: And the viability, T/C (second compound 1 µM, first compound 0.0316 µM)?
A: Its viability, T/C is 91.5%.

Q: What about the viability, T/C (second compound 1 µM, first compound 0.1 µM) of the same compound?
A: The viability, T/C was 63.7%.

Q: And the viability, T/C (second compound 1 µM, first compound 0.316 µM)?
A: The viability, T/C was 63.8%.

Q: And the viability, T/C (second compound 1 µM, first compound 1 µM)?
A: The viability, T/C was 83.3%.

Q: And the viability, T/C (second compound 1 µM, first compound 3.16 µM)?
A: The viability, T/C was 45.7%.

Q: And the viability, T/C (second compound 1 µM, first compound 10 µM)?
A: The viability, T/C was 0.94%.

Q: And the viability, T/C (second compound 3.16 µM, first compound 0.0316 µM)?
A: The viability, T/C was 83.3%.

Q: What about the viability, T/C (second compound 3.16 µM, first compound 0.1 µM) of the same compound?
A: Its viability, T/C is 93.2%.

Q: And the viability, T/C (second compound 3.16 µM, first compound 0.316 µM)?
A: Its viability, T/C is 78.8%.

Q: What about the viability, T/C (second compound 3.16 µM, first compound 1 µM) of the same compound?
A: The viability, T/C was 71%.

Q: And the viability, T/C (second compound 3.16 µM, first compound 3.16 µM)?
A: The viability, T/C was 46.9%.

Q: And the viability, T/C (second compound 3.16 µM, first compound 10 µM)?
A: The viability, T/C was 0.99%.

Q: And the viability, T/C (second compound 10 µM, first compound 0.0316 µM)?
A: The viability, T/C was 86.3%.

Q: What about the viability, T/C (second compound 10 µM, first compound 0.1 µM) of the same compound?
A: Its viability, T/C is 81.5%.

Q: And the viability, T/C (second compound 10 µM, first compound 0.316 µM)?
A: The viability, T/C was 67.9%.

Q: What about the viability, T/C (second compound 10 µM, first compound 1 µM) of the same compound?
A: The viability, T/C was 62.4%.

Q: And the viability, T/C (second compound 10 µM, first compound 3.16 µM)?
A: Its viability, T/C is 44.4%.

Q: What about the viability, T/C (second compound 10 µM, first compound 10 µM) of the same compound?
A: Its viability, T/C is 1%.

Q: For `Nc1ccn(C2OC(CO)C(O)C2(F)F)c(=O)n1` (stereo not given) + NC1CCC(NC2CC2c2ccccc2)CC1, which IC50 (second compound 0.1 µM) is on record?
A: Its IC50 is 0.0579 µM.

Q: What about the IC50 (second compound 0.316 µM) of the same compound?
A: Its IC50 is 0.0496 µM.

Q: And the IC50 (second compound 1 µM)?
A: Its IC50 is 0.0445 µM.

Q: What about the IC50 (second compound 3.16 µM) of the same compound?
A: Its IC50 is 0.0876 µM.

Q: And the IC50 (second compound 10 µM)?
A: The IC50 was 0.0532 µM.

Q: And the viability, T/C (second compound 0.1 µM, first compound 0.000949 µM)?
A: Its viability, T/C is 77.4%.

Q: And the viability, T/C (second compound 0.1 µM, first compound 0.003 µM)?
A: The viability, T/C was 68.3%.

Q: And the viability, T/C (second compound 0.1 µM, first compound 0.00949 µM)?
A: Its viability, T/C is 67.8%.

Q: And the viability, T/C (second compound 0.1 µM, first compound 0.03 µM)?
A: Its viability, T/C is 53.5%.

Q: And the viability, T/C (second compound 0.1 µM, first compound 0.0949 µM)?
A: The viability, T/C was 46.8%.

Q: And the viability, T/C (second compound 0.1 µM, first compound 0.3 µM)?
A: Its viability, T/C is 33%.

Q: And the viability, T/C (second compound 0.316 µM, first compound 0.000949 µM)?
A: The viability, T/C was 73.9%.

Q: What about the viability, T/C (second compound 0.316 µM, first compound 0.003 µM) of the same compound?
A: Its viability, T/C is 72%.

Q: What about the viability, T/C (second compound 0.316 µM, first compound 0.00949 µM) of the same compound?
A: The viability, T/C was 67.3%.

Q: And the viability, T/C (second compound 0.316 µM, first compound 0.03 µM)?
A: The viability, T/C was 52.9%.

Q: And the viability, T/C (second compound 0.316 µM, first compound 0.0949 µM)?
A: Its viability, T/C is 46%.

Q: And the viability, T/C (second compound 0.316 µM, first compound 0.3 µM)?
A: The viability, T/C was 39.5%.

Q: What about the viability, T/C (second compound 1 µM, first compound 0.000949 µM) of the same compound?
A: The viability, T/C was 85.9%.

Q: And the viability, T/C (second compound 1 µM, first compound 0.003 µM)?
A: Its viability, T/C is 68.1%.

Q: And the viability, T/C (second compound 1 µM, first compound 0.00949 µM)?
A: The viability, T/C was 62.4%.

Q: And the viability, T/C (second compound 1 µM, first compound 0.03 µM)?
A: Its viability, T/C is 50.4%.

Q: What about the viability, T/C (second compound 1 µM, first compound 0.0949 µM) of the same compound?
A: The viability, T/C was 48%.

Q: And the viability, T/C (second compound 1 µM, first compound 0.3 µM)?
A: Its viability, T/C is 41.9%.

Q: And the viability, T/C (second compound 3.16 µM, first compound 0.000949 µM)?
A: Its viability, T/C is 84.3%.

Q: What about the viability, T/C (second compound 3.16 µM, first compound 0.003 µM) of the same compound?
A: Its viability, T/C is 77.5%.

Q: What about the viability, T/C (second compound 3.16 µM, first compound 0.00949 µM) of the same compound?
A: The viability, T/C was 70.4%.

Q: What about the viability, T/C (second compound 3.16 µM, first compound 0.03 µM) of the same compound?
A: Its viability, T/C is 59.9%.

Q: And the viability, T/C (second compound 3.16 µM, first compound 0.0949 µM)?
A: Its viability, T/C is 48.7%.

Q: What about the viability, T/C (second compound 3.16 µM, first compound 0.3 µM) of the same compound?
A: Its viability, T/C is 41.3%.

Q: And the viability, T/C (second compound 10 µM, first compound 0.000949 µM)?
A: Its viability, T/C is 66.7%.

Q: What about the viability, T/C (second compound 10 µM, first compound 0.003 µM) of the same compound?
A: Its viability, T/C is 68.5%.

Q: And the viability, T/C (second compound 10 µM, first compound 0.00949 µM)?
A: The viability, T/C was 69.3%.

Q: And the viability, T/C (second compound 10 µM, first compound 0.03 µM)?
A: Its viability, T/C is 54.6%.

Q: What about the viability, T/C (second compound 10 µM, first compound 0.0949 µM) of the same compound?
A: The viability, T/C was 45.8%.

Q: And the viability, T/C (second compound 10 µM, first compound 0.3 µM)?
A: Its viability, T/C is 39.2%.
